# Results as given in PubChem BioAssay (NCI).
#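 Briefly, cells in 96-well plates were exposed to five compound concentrations for 48 h, and endpoints were estimated by linear interpolation. The concentration for 50% growth inhibition is given as GI50. The concentration for full growth arrest is given as TGI.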
# Key:
# Assay in all cases: growth of human tumour cells (NCI), 48 h
# SK-MEL-2 melanoma = system: SK-MEL-2 melanoma
# MDA-MB-231 breast = system: MDA-MB-231 breast
# SF-295 CNS = system: SF-295 CNS
# HOP-92 NSCLC = system: HOP-92 NSCLC
# SNB-19 CNS = system: SNB-19 CNS
# NCI-H460 lung = system: NCI-H460 lung
# SK-MEL-28 melanoma = system: SK-MEL-28 melanoma
# UACC-62 melanoma = system: UACC-62 melanoma
# UACC-257 melanoma = system: UACC-257 melanoma
# UO-31 renal = system: UO-31 renal
# CCRF-CEM leukemia = system: CCRF-CEM leukemia
# MOLT-4 leukemia = system: MOLT-4 leukemia
# RXF 393 renal = system: RXF 393 renal
# MDA-MB-435 = system: MDA-MB-435
# SK-MEL-5 melanoma = system: SK-MEL-5 melanoma
# A498 renal = system: A498 renal
# BT-549 breast = system: BT-549 breast
# IGROV1 ovarian = system: IGROV1 ovarian
# SF-268 CNS = system: SF-268 CNS
# HCT-15 colon = system: HCT-15 colon
# KM12 colon = system: KM12 colon
# TK-10 renal = system: TK-10 renal
# SR leukemia = system: SR leukemia
# NCI-H226 lung = system: NCI-H226 lung
# OVCAR-3 ovarian = system: OVCAR-3 ovarian
# U251 CNS = system: U251 CNS
# NCI-H23 lung = system: NCI-H23 lung
# NCI/ADR-RES ovarian = system: NCI/ADR-RES ovarian
# 786-0 renal = system: 786-0 renal
# T-47D breast = system: T-47D breast
# OVCAR-5 ovarian = system: OVCAR-5 ovarian
# SW-620 colon = system: SW-620 colon
# NCI-H522 lung = system: NCI-H522 lung
# HT29 colon = system: HT29 colon
# SNB-75 CNS = system: SNB-75 CNS
# SF-539 CNS = system: SF-539 CNS
# OVCAR-8 ovarian = system: OVCAR-8 ovarian
# HCC-2998 colon = system: HCC-2998 colon
# COLO 205 colon = system: COLO 205 colon
# RPMI-8226 leukemia = system: RPMI-8226 leukemia
# HOP-62 NSCLC = system: HOP-62 NSCLC
# LOX IMVI melanoma = system: LOX IMVI melanoma
# ACHN renal = system: ACHN renal
# HS 578T breast = system: HS 578T breast
# PC-3 prostate = system: PC-3 prostate
# SK-OV-3 ovarian = system: SK-OV-3 ovarian
# MCF7 breast = system: MCF7 breast
# K-562 leukemia = system: K-562 leukemia
# M14 melanoma = system: M14 melanoma
# HL-60(TB) leukemia = system: HL-60(TB) leukemia
# SN12C renal = system: SN12C renal
# A549 NSCLC = system: A549 NSCLC
# EKVX NSCLC = system: EKVX NSCLC
# OVCAR-4 ovarian = system: OVCAR-4 ovarian
# HCT-116 colon = system: HCT-116 colon
# MALME-3M melanoma = system: MALME-3M melanoma
compound,measurement,setting,value
CCN1CCN(c2cc(C)nc(N(CCCNc3ccnc4cc(Cl)ccc34)Cc3cccs3)n2)CC1,GI50,SK-MEL-2 melanoma,1.98 µM
same,TGI,SK-MEL-2 melanoma,3.92 µM
same,GI50,MDA-MB-231 breast,1.4 µM
same,TGI,MDA-MB-231 breast,3.56 µM
same,GI50,SF-295 CNS,1.84 µM
same,TGI,SF-295 CNS,3.73 µM
same,GI50,HOP-92 NSCLC,1.55 µM
same,TGI,HOP-92 NSCLC,3.79 µM
same,GI50,SNB-19 CNS,3.88 µM
same,TGI,SNB-19 CNS,13.9 µM
same,GI50,NCI-H460 lung,2.47 µM
same,TGI,NCI-H460 lung,7.84 µM
same,GI50,SK-MEL-28 melanoma,1.82 µM
same,TGI,SK-MEL-28 melanoma,3.39 µM
same,GI50,UACC-62 melanoma,1.93 µM
same,TGI,UACC-62 melanoma,3.56 µM
same,GI50,UACC-257 melanoma,2.1 µM
same,TGI,UACC-257 melanoma,3.94 µM
same,GI50,UO-31 renal,1.33 µM
same,TGI,UO-31 renal,2.88 µM
same,GI50,CCRF-CEM leukemia,2.7 µM
same,TGI,CCRF-CEM leukemia,12.5 µM
same,GI50,MOLT-4 leukemia,1.62 µM
same,TGI,MOLT-4 leukemia,6.12 µM
same,GI50,RXF 393 renal,1.45 µM
same,TGI,RXF 393 renal,3.17 µM
same,GI50,MDA-MB-435,1.59 µM
same,TGI,MDA-MB-435,2.95 µM
same,GI50,SK-MEL-5 melanoma,1.72 µM
same,TGI,SK-MEL-5 melanoma,3.11 µM
same,GI50,A498 renal,2.41 µM
same,TGI,A498 renal,7.13 µM
same,GI50,BT-549 breast,1.93 µM
same,TGI,BT-549 breast,5.04 µM
same,GI50,IGROV1 ovarian,2.11 µM
same,TGI,IGROV1 ovarian,6.58 µM
same,GI50,SF-268 CNS,2.03 µM
same,TGI,SF-268 CNS,6.62 µM
same,GI50,HCT-15 colon,1.33 µM
same,TGI,HCT-15 colon,4.51 µM
same,GI50,KM12 colon,2.62 µM
same,TGI,KM12 colon,12.7 µM
same,GI50,TK-10 renal,1.82 µM
same,TGI,TK-10 renal,4.09 µM
same,GI50,SR leukemia,1.29 µM
same,TGI,SR leukemia,3.23 µM
same,GI50,NCI-H226 lung,8.12 µM
same,TGI,NCI-H226 lung,31.5 µM
same,GI50,OVCAR-3 ovarian,1.83 µM
same,TGI,OVCAR-3 ovarian,6.03 µM
same,GI50,U251 CNS,2.22 µM
same,TGI,U251 CNS,7.05 µM
same,GI50,NCI-H23 lung,3.21 µM
same,TGI,NCI-H23 lung,14.3 µM
same,GI50,NCI/ADR-RES ovarian,2.96 µM
same,TGI,NCI/ADR-RES ovarian,16.8 µM
same,GI50,786-0 renal,1.56 µM
same,TGI,786-0 renal,3.58 µM
same,GI50,T-47D breast,2.29 µM
same,TGI,T-47D breast,6.89 µM
same,GI50,OVCAR-5 ovarian,3.97 µM
same,TGI,OVCAR-5 ovarian,15.3 µM
same,GI50,SW-620 colon,1.59 µM
same,TGI,SW-620 colon,3.86 µM
same,GI50,NCI-H522 lung,1.81 µM
same,TGI,NCI-H522 lung,3.81 µM
same,GI50,HT29 colon,1.31 µM
same,TGI,HT29 colon,4.33 µM
same,GI50,SNB-75 CNS,1.5 µM
same,TGI,SNB-75 CNS,3.2 µM
same,GI50,SF-539 CNS,1.76 µM
same,TGI,SF-539 CNS,3.33 µM
same,GI50,OVCAR-8 ovarian,3.06 µM
same,TGI,OVCAR-8 ovarian,10.9 µM
same,GI50,HCC-2998 colon,1.98 µM
same,TGI,HCC-2998 colon,4.58 µM
same,GI50,COLO 205 colon,1.57 µM
same,TGI,COLO 205 colon,3.32 µM
same,GI50,RPMI-8226 leukemia,1.57 µM
same,TGI,RPMI-8226 leukemia,4.82 µM
same,GI50,HOP-62 NSCLC,2.79 µM
same,TGI,HOP-62 NSCLC,15.2 µM
same,GI50,LOX IMVI melanoma,1.84 µM
same,TGI,LOX IMVI melanoma,3.59 µM
same,GI50,ACHN renal,3.38 µM
same,TGI,ACHN renal,9.22 µM
same,GI50,HS 578T breast,2.02 µM
same,TGI,HS 578T breast,5.02 µM
same,GI50,PC-3 prostate,3.11 µM
same,TGI,PC-3 prostate,15.9 µM
same,GI50,SK-OV-3 ovarian,3.29 µM
same,TGI,SK-OV-3 ovarian,10.5 µM
same,GI50,MCF7 breast,2.22 µM
same,TGI,MCF7 breast,10.3 µM
same,GI50,K-562 leukemia,0.525 µM
same,TGI,K-562 leukemia,2.29 µM
same,GI50,M14 melanoma,1.8 µM
same,TGI,M14 melanoma,3.51 µM
same,GI50,HL-60(TB) leukemia,2.14 µM
same,TGI,HL-60(TB) leukemia,4.15 µM
same,GI50,SN12C renal,3.35 µM
same,TGI,SN12C renal,14 µM
same,GI50,A549 NSCLC,3.22 µM
same,TGI,A549 NSCLC,14.4 µM
same,GI50,EKVX NSCLC,3.88 µM
same,TGI,EKVX NSCLC,16.6 µM
same,GI50,OVCAR-4 ovarian,2.11 µM
same,TGI,OVCAR-4 ovarian,12.7 µM
same,GI50,HCT-116 colon,1.32 µM
same,TGI,HCT-116 colon,10.4 µM
same,GI50,MALME-3M melanoma,2.01 µM
same,TGI,MALME-3M melanoma,3.7 µM
